Assay results published in patent publication US20110053897A1 (IRM LLC, priority 2009, published 2011).
Like-named read-outs stand apart in the source and are kept apart here.

How the values were obtained:
Syk kinase [1] = biological target: T1, Syk kinase (Homo sapiens, UniProt P43405); experiment: Syk kinase inhibition, Caliper LabChip off-chip mobility-shift kinase assay; type: biochemical; conditions: read-out: Syk Enzyme IC50
T1 construct: purchased
Summary of the method: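 Purified Syk pre-incubated 15 min with compound in 100 mM HEPES pH 7.5, 1 mM DTT, 10 mM MgCl2 or MnCl2, 0.002% Brij-35, then 1.5 μM fluorescein peptide and ATP at apparent KM added; 1–1.5 h at room temperature, 4% DMSO, EDTA stop. Microfluidic mobility-shift product/substrate conversion gave % inhibition; IC50 from 12-point series (10–0.00003 μM) by 4-parameter fit.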

[2] = Pharmacokinetic parameters (bioavailability, metabolic stability, half life, compound exposure); conditions: qualitative statement, values not given
Syk kinase [3] = biological target: T1, Syk kinase; experiment: Selectivity for Syk kinase over other kinases, receptors, enzymes and transporters; type: biochemical; conditions: qualitative statement, values not given

Row | SMILES | IC50 (Syk kinase [1]; Caliper LabChip assay) [nM] | IC50 (Syk kinase [1]) [nM] | other results
1 | CC(C)(C)Nc1nc(Nc2cnccn2)cc2ccn(C[C@@H](O)CO)c(=O)c12 [compound 668, (R)-8-(tert-butylamino)-2-(2,3-dihydroxypropyl)-6-(pyrazin-2-ylamino)-2,7-naphthyridin-1(2H)-one] | 7 | – | pharmacokinetic parameters, such as bioavailablity, enhanced metabolic stability, half life and compound exposure [2]: improved pharmacokinetic parameters
2 | CC(C)(C)Nc1nc(-c2cnc(N)nc2)cc2ccn(CCS(C)(=O)=O)c(=O)c12 [compound 737] | 20 | – | –
3 | CCCc1ccnc(Nc2cc3ccn(CC)c(=O)c3c(NC(C)C)n2)c1 [compound 306] | – | 612 | –
4 | [2H]C([2H])([2H])n1ccc2cc(Nc3cc(C)c(Cl)cn3)nc(NC(C)(C)C)c2c1=O [compound 537] | – | 502 | –
5 | COCCCc1cc(Nc2cc3ccn(CCO)c(=O)c3c(NC(C)(C)C)n2)ncn1 [compound 622] | 85 | – | –
6 | CC(C)(O)Cn1ccc2cc(Nc3cc(C(C)(C)O)ncn3)nc(NC3(C)CCC3)c2c1=O [compound 733] | 92 | – | –
7 | CC(C)(C)Nc1nc(Nc2cnccn2)cc2ccn(Cc3c[nH]nn3)c(=O)c12 [compound 881] | 18 | – | –
8 | CC(C)(C)Nc1nc(Nc2cc(C(O)C(F)(F)F)ccn2)cc2ccn(CC(N)=O)c(=O)c12 (centres unmarked) [compound 613] | 142 | – | –
9 | CC(C)(C)Nc1nc(-c2cnc(N)nc2)cc2ccn(C[C@H](O)CO)c(=O)c12 [compound 934] | 9 | – | –
10 | CCn1ccc2cc(Nc3cc(C)ccn3)nc(NC3CCCC(O)C3)c2c1=O (centres unmarked) [compound 972] | 59 | – | –
11 | CCn1ccc2cc(Nc3cc(C)ccn3)nc(N[C@@H]3CC[C@H](CO)C3)c2c1=O (stereo in doubt) [compound 789] | 72 | – | –
12 | CC(C)(C)Nc1nc(Nc2cc(C(F)CO)ccn2)cc2ccn(CCO)c(=O)c12 (centres unmarked) [compound 872] | < 1.17 | – | –
13 | CC(C)(C)Nc1nc(Nc2cnccn2)cc2ccn(CCO)c(=O)c12 [compound 459] | – | 52 | –
14 | Cn1ccc2cc(Nc3cnccn3)nc(N)c2c1=O [compound 479] | – | 599 | –
15 | [2H]C([2H])([2H])n1ccc2cc(Nc3cc(C)c(F)cn3)nc(NC(C)(C)C)c2c1=O [compound 531] | – | 296 | –
16 | CCn1ccc2cc(Nc3cc(C)c(F)cn3)nc(N[C@@H](C)CO)c2c1=O [compound 395] | – | 85 | –
17 | Cc1ccnc(Nc2cc3ccn(C)c(=O)c3c(N[C@H]3CCOC3)n2)c1 [compound 325] | – | 57 | –
18 | CC(C)(C)Nc1nc(Nc2cc(C3(C(=O)O)CC3)ccn2)cc2ccn(CCO)c(=O)c12 [compound 856] | 393 | – | –
19 | CCn1ccc2cc(Nc3cc(Cl)ccn3)nc(NC(C)C)c2c1=O [compound 305] | – | 257 | –
20 | CC(C)(C)Nc1nc(Nc2cc(C(C)(C)O)ncn2)cc2ccn(C3COC3)c(=O)c12 [compound 734] | 57 | – | selectivity for Syk kinase over other kinases, as well as other receptors, enzymes and transporters (Syk kinase [3]): improved Syk selectivity
21 | CC1(Nc2nc(Nc3cc(C(C)(C)O)ccn3)cc3ccn(CC(N)=O)c(=O)c23)CC1 [compound 724] | 203 | – | –
22 | Cn1ccc2cc(Nc3ccc(C#N)cn3)nc(N)c2c1=O [compound 573] | – | 3870 | –
23 | Nc1nc(Nc2cnccn2)cc2ccn(Cc3ccccc3)c(=O)c12 [compound 478] | – | 1630 | –
24 | CC(C)(C)Nc1nc(-c2cnc(N)nc2)cc2ccn(CC(N)=O)c(=O)c12 [compound 663] | 43 | – | –
25 | [2H][C@]1(O)CC[C@H](Nc2nc(Nc3cnccn3)cc3ccn(CC)c(=O)c23)CC1 [compound 991] | 29 | – | –
26 | CC(C)(C)Nc1nc(Nc2cc(C3CCCCC3)ncn2)cc2ccn(CCO)c(=O)c12 [compound 625] | 452 | – | –
27 | Nc1ncc(-c2cc3ccn(C4COC4)c(=O)c3c(NC3CCOCC3)n2)cn1 [compound 770] | 36 | – | –
28 | CCn1ccc2cc(Nc3cc(C)ccn3)nc(NC[C@@H]3CC[C@](C)(O)C3)c2c1=O [compound 414] | – | 287 | –

Second part, led by results:

Row | IC50 (Syk kinase [1]; Caliper LabChip assay) [nM] | IC50 (Syk kinase [1]) [nM] | SMILES | other results
29 | 25 | – | Nc1ncc(-c2cc3ccn(C4COC4)c(=O)c3c(NC3CCC3)n2)cn1 [compound 772] | –
30 | – | 501 | Cc1ccnc(Nc2cc3cc[nH]c(=O)c3c(NCCO)n2)c1 [compound 561] | –
31 | – | 312 | O=c1[nH]ccc2cc(Nc3ccccn3)nc(NCC3CC3)c12 [compound 291] | –
32 | – | 263 | Cc1n[nH]c2ncc(-c3cc4cc[nH]c(=O)c4c(Nc4ccc(N5CCOCC5)cc4)n3)cc12 [compound 192] | –
33 | – | 398 | CCN1CCN(CCc2ccc(Nc3nc(Nc4ccc(Cl)cn4)cc4cc[nH]c(=O)c34)cc2)CC1 [compound 536] | –
34 | – | 7 | COc1cncc(-c2cc3cc[nH]c(=O)c3c(Nc3ccc(C4CCN(CCC(=O)O)CC4)c(C)c3)n2)n1 [compound 163] | –
35 | – | 72 | COCCC(=O)N1CCC(c2ccc(Nc3nc(-c4cncc(OC)n4)cc4cc[nH]c(=O)c34)cc2)CC1 [compound 26] | –
36 | – | 61 | COc1cncc(-c2cc3cc[nH]c(=O)c3c(Nc3ccc(C4CCN(CC(C)C#N)CC4)c(C)c3)n2)n1 (centres unmarked) [compound 178] | –
37 | – | 15 | Cc1ccnc(Nc2cc3cc[nH]c(=O)c3c(Nc3ccc(N4CCOCC4)cc3)n2)c1 [compound 480] | –
38 | 34 | – | Nc1ncc(-c2cc3ccn(C[C@H](O)CO)c(=O)c3c(NC3CCC3)n2)cn1 [compound 774] | –
39 | – | 88 | C[C@H](O)CNc1nc(-c2cnc(N)nc2)cc2cc[nH]c(=O)c12 [compound 451] | –
40 | – | 24 | COc1cncc(-c2cc3cc[nH]c(=O)c3c(Nc3ccc(C4CN(C(C)=O)C4)cc3)n2)n1 [compound 149] | –
41 | – | 489 | Nc1ncc(-c2cc3ccn(CC4CC4(F)F)c(=O)c3c(Nc3ccc(N4CCOCC4)cc3)n2)cn1 (centres unmarked) [compound 4] | –
42 | – | 27 | CCN1CCN(Cc2n[nH]c3cc(Nc4nc(-c5cncnc5)cc5cc[nH]c(=O)c45)ccc23)CC1 [compound 202] | –
43 | – | 623 | COc1cncc(-c2cc3c(F)c[nH]c(=O)c3c(Nc3ccc(N4CCOCC4)cc3)n2)n1 [compound 432] | –
44 | – | 2080 | Cc1cc(Nc2nc(Nc3ccc(Cl)cn3)cc3cc[nH]c(=O)c23)ccc1C1CCN(C2CC2)CC1 [compound 250] | –
45 | 222 | – | CC(C)(C)Nc1nc(Nc2cc(-c3ccc4[nH]ncc4c3)ccn2)cc2ccn(CCO)c(=O)c12 [compound 851] | –
46 | – | 158 | COc1cncc(-c2cc3cc[nH]c(=O)c3c(Nc3ccc(C4CCN(CCC(C)(C)C)CC4)c(C)c3)n2)n1 [compound 61] | –
47 | – | 58 | Cc1cc(Nc2nc(Nc3ccc(C(N)=O)cn3)cc3cc[nH]c(=O)c23)ccc1C1CCN(C2CC2)CC1 [compound 251] | –
48 | – | 109 | O=c1[nH]ccc2cc(-c3cncnc3)nc(Nc3ccc(C4CNC4)cc3)c12 [compound 129] | –
49 | – | 120 | CCn1ccc2cc(Nc3cc(C)ccn3)nc(NC[C@H]3CC[C@H](O)C3)c2c1=O [compound 410] | –
50 | – | 45 | CN1CCC(c2ccc(Nc3nc(Nc4cnccn4)cc4ccn(C)c(=O)c34)cc2)CC1 [compound 344] | –
51 | – | 335 | O=c1[nH]ccc2cc(Nc3ccccn3)nc(NC3CCOCC3)c12 [compound 297] | –
